According to US20230331652A1, “TRANS-CYCLOOCTENES WITH HIGH REACTIVITY AND FAVORABLE PHYSIOCHEMICAL PROPERTIES” (University of Delaware, priority 2020, published 2023):
Entries after “also recorded” stand apart in the source; their conditions may differ.

How the values were obtained:
[1] = Storage stability of neat TCO; assay type: physicochemical; details: neat versus stored in solution
Excerpt: The diastereoselective additions of 2 with methyl α-lithioacetate or lithioacetonitrile provided a straightforward path to introduce handles for conjugation via amide bond or ether formation. The reaction of ketone 2 with lithium bis(trimethylsilyl)amide (LiHMDS)/methyl acetate produced ester 9 in 86% yield. Similarly, the combination of 2 with LiHMDS and acetonitrile produced nitrile 10 in 98% yield. Hydrolysis of 9 with trimethyltin hydroxide followed by DIC-mediated coupling with N-hydroxysuccinimide gave NHS ester 11 in 89% yield (FIG. 3B). Alternately, using LiOH gave 11 in 46% yield after DIC coupling. Through amide coupling, 11 gave the fluorescent TAMRA-conjugate 12 with favorable physiochemical properties, and 11 was also combined with hydrazine monohydrate to give hydrazide 13 with a potential handle for aldehyde conjugation. TCO 9 also was combined with LiAlH4 to provide diol 14 in 89% yield which was next used in a Williamson ether synthesis with NaH/propargyl bromide to give 96% yield of propargyl ether 15. […] Amine 16 was synthesized by LiAlH4 reduction of TCO nitrile 10 in 93% yield to introduce an acid reactive conjugation handle. […] In summary, ketone 2 can serve as a readily prepared, central intermediate for the diastereoselective preparation of a range of hydrophilic a-TCO conjugates.

[2] = test system: HeLa cells transfected with either HaloTag-H2B-GFP (nucleus) or HaloTag-GAP43-GFP (cytoplasm); experiment: TAMRA-a-TCO permeability assay (HaloTag intracellular labeling); assay type: cell-based; details: 1 μM, 30 min
Description: Here, cells are transfected with a GFP-HaloTag construct fused to a protein that controls subcellular localization, and then labeled by a tetrazine-HaloTag ligand 21. Upon subsequent reaction with fluorescent TAMRA-a-TCO, conjugation is expected only in those cells that express the HaloTag fusion protein, and co-localization of GFP and TAMRA fluorescence is expected.
HeLa Cell Culture and Transfection: HeLa cells were grown in Dulbecco's modified eagle medium (DMEM, Life Technologies) supplemented with 10% (v:v) heat inactivated fetal bovine serum (Life Technologies), 2 mM I-glutamine, and 100 units/mL penicillin/streptomycin (Life Technologies) in a humidified incubator at 37° C./5% CO2. Transfection was performed with cells at 70% confluency using Lipofectamine 3000 according to the manufacturer's instructions. HeLa cells were incubated for 5 hours at 37° C./5% CO2 before being exchanged with antibiotic free growth media for 16-20 hours prior to experimental procedures. […]

[3] = test system: HeLa cells; experiment: TAMRA-TCO comparative washout assay; assay type: cell-based; details: 5 μM, 30 min incubation
Excerpt: While TCO-derivatives offer rapid labeling kinetics, a consideration for labeling by fluorophore-tagged TCOs has been the background fluorescence due to non-covalent cellular binding that can be ameliorated only by extended washout times. More hydrophilic oxo- and dioxo-trans-cyclooctenes with backbone oxygens offer improvements, but are difficult to synthesize and, for dioxo-TCO, display reduced Diels-Alder kinetics. As shown in FIGS. 5A-5C, the fluorescent conjugates TAM RA-TCO, TAMRA-oxo-TCO and TAMRA-a-TCO were prepared and compared their cellular washout times to unconjugated TAMRA. Thus, HeLa cells were incubated for 30 min with TAMRA-dyes, and cells were initially washed three times with DPBS, and then cell media was exchanged after 10, 40 and 120 minutes. After each wash, cells were imaged live by fluorescence microscopy with illumination at 531 nm and fixed-intensity across all samples. Widefield images of the cells after 3 washes are shown in FIG. 5B; images after the earlier and later washings are shown in FIG. 8. Background fluorescence was quantified by dividing total fluorescence by the number of cells in each image (FIG. 5C).
HeLa cells were seeded at 5×10^3 cells per well in a poly-L-lysine (0.1 mg/mL) coated 48-well plate and allowed to grow for 48 hours in Dulbecco's modified eagle medium (DMEM, Life Technologies) supplemented with 5% FBS (Life Technologies), 1 mM L-glutamine, and 1% penicillin/streptomycin (Life Technologies). Cells were then incubated with media containing 5 μM of TAMRA-TCO, TAMRA-oxo-TCO, or TAMRA-a-TCO 12 (1 mM stock solutions in DMSO, diluted twice into media) for 30 mins at 37° C. All wells were washed three times with DPBS before adding fresh media. Cells were imaged after 2 DPBS washes and again after the 3rd DPBS wash, then incubated for additional time intervals: 10 minutes, 40 minutes, and 2 hour. At each time point, the media was removed from the designated wells and replaced with fresh media before imaging. Images were taken with an EVOS M7000 and all images were taken with the same laser power and gain. Fluorescence intensity was calculated for each sample in 3 replicates using ImageJ and the fluorescence data was normalized with the cell count of each image.

| cell permeability ([2]; live HeLa cells, after MeTz-Halo 21 (10 μM)) | Compound | storage stability [1] | colocalization of TAMRA signal with GFP ([2]; nuclear (H2B) and cytoplasmic (GAP43) HaloTag targets, confocal microscopy) | reduction in background fluorescence relative to TAMRA-TCO ([3]; after initial 3× wash) | background fluorescence / washout after 2 hours ([3]; media exchanges up to 2 hours) |
| --- | --- | --- | --- | --- | --- |
|  | C=CCC1(O)CC/C=C/CCC1 (stereo not drawn) [Compound 6, 5-eq-Allyl-5-ax-hydroxy-trans-cyclooctene] | polymerize if not stored in solution |  |  |  |
| cell permeable | CN(C)c1ccc2c(-c3ccc(C(=O)NCCCCCNC(=O)C[C@]4(O)CC/C=C/CCC4)cc3C(=O)[O-])c3ccc(=[N+](C)C)cc-3oc2c1 [TAMRA-a-TCO, (R,E)-2-(6-(dimethylamino)-3-(dimethyliminio)-3H-xanthen-9-yl)-5-((5-(2-(1-hydroxycyclooct-4-en-1-yl)acetamido)pentyl)carbamoyl)benzoate] |  | subcellular colocalization of GFP and TAMRA fluorescence; also recorded: selective colocalization of the TAMRA signal with GFP was observed | 85% | essentially complete |
|  | C#CCOCC[C@]1(O)CC/C=C/CCC1 [Compound 15, 5-ax-Hydroxy-5-eq-(2-(prop-2-yn-1-yloxy)ethyl)-trans-cyclooctene] | more stable alternative |  |  |  |
